Experimental findings from US20220402948A1, “EGFR INHIBITOR, COMPOSITION AND PREPARATION METHOD THEREFOR” (BETTA PHARMACEUTICALS CO., LTD., priority 2019, published 2022) are described below.

For one assay, the target named is IGF1R (Homo sapiens, UniProt P08069). Kind of assay: IGF1R kinase test (mobility variation analysis, Caliper EZ Reader). The class given is biochemical. Particulars: kinase enzymatic activity, Table 1; read-out: EGFR IGF1R IC50. The method, boiled down: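 Kinase preincubated 10 min at room temperature with compound (10-point 3-fold series, top 3000 nM), then ATP and substrate added and reacted at room temperature. Substrate conversion read by mobility-shift (Caliper EZ Reader); % inhibition vs no-enzyme and no-compound controls fitted to variable-slope curve for IC50.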
Sequence of IGF1R (P08069 31-1367, species assumed): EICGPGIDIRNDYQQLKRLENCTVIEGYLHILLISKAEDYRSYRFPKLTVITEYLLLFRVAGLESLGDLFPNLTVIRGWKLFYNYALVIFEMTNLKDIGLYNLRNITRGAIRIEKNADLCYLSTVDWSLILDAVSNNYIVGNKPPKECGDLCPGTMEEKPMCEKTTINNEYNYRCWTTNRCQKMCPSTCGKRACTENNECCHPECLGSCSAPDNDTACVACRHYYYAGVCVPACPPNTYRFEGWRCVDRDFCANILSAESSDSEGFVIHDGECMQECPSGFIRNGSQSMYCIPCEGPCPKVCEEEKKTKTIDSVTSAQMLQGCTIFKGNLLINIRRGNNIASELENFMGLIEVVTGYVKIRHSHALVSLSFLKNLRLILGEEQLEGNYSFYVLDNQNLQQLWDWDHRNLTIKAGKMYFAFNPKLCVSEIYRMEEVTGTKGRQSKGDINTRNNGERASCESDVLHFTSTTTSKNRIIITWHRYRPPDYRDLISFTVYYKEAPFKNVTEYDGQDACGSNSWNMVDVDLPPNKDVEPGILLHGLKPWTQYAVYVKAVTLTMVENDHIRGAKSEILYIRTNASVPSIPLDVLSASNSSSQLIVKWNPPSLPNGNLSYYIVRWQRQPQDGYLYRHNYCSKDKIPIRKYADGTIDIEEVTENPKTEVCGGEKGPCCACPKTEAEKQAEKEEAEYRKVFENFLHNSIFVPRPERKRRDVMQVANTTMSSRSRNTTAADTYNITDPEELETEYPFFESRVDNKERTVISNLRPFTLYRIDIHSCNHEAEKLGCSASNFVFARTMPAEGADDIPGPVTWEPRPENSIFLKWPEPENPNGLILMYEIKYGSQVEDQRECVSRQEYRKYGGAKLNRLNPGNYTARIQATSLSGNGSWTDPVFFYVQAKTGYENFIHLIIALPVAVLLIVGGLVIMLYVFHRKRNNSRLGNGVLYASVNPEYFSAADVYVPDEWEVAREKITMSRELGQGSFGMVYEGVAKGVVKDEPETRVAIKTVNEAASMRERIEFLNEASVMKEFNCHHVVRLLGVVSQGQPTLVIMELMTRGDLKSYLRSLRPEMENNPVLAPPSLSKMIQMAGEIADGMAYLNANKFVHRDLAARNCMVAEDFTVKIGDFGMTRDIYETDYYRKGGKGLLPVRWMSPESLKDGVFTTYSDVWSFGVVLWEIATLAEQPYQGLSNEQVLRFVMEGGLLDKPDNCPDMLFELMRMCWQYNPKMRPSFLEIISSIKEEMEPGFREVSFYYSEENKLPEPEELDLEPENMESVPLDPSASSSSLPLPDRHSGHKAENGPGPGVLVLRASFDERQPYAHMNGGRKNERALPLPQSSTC

Assay [1] concerns the target Ba/F3 cells with EGFR Δ19del/T790M/C797S mutation gene stably overexpressed (Homo sapiens, UniProt P00533, T790M/C797S, cells depend on it, form not given). Kind of assay: Ba/F3-Δ19del/T790M/C797S cell proliferation assay (CellTiter Glo, 72 hours). Type of assay: cell-based. The essentials:
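Ba/F3 cells stably overexpressing wild-type EGFR or EGFR Δ19del/T790M/C797S were seeded at 2000 cells/well and incubated 72 h with compound. Viability was read by CellTiter-Glo luminescence, and IC50 came from a four-parameter logistic fit of signal against log concentration.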

For assay [2], the target named is Ba/F3-EGFR wild-type cell line (Homo sapiens, UniProt P00533). Nature of the assay: Ba/F3-EGFR wild-type cell proliferation assay (CellTiter Glo, 72 hours). Type of assay: cell-based. Particulars: Table 2, read-out: EGFR WT IC50. Here is the method: Cell line: Ba/F3 cells with EGFR Δ19del/T790M/C797S mutation gene stably overexpressed named Ba/F3-Δ119del/T90M/C797S, and A431 and Ba/F3-EGFR wild-type cell line.
Sequence of Ba/F3-EGFR wild-type cell line (P00533 whole entry, stated change not applied): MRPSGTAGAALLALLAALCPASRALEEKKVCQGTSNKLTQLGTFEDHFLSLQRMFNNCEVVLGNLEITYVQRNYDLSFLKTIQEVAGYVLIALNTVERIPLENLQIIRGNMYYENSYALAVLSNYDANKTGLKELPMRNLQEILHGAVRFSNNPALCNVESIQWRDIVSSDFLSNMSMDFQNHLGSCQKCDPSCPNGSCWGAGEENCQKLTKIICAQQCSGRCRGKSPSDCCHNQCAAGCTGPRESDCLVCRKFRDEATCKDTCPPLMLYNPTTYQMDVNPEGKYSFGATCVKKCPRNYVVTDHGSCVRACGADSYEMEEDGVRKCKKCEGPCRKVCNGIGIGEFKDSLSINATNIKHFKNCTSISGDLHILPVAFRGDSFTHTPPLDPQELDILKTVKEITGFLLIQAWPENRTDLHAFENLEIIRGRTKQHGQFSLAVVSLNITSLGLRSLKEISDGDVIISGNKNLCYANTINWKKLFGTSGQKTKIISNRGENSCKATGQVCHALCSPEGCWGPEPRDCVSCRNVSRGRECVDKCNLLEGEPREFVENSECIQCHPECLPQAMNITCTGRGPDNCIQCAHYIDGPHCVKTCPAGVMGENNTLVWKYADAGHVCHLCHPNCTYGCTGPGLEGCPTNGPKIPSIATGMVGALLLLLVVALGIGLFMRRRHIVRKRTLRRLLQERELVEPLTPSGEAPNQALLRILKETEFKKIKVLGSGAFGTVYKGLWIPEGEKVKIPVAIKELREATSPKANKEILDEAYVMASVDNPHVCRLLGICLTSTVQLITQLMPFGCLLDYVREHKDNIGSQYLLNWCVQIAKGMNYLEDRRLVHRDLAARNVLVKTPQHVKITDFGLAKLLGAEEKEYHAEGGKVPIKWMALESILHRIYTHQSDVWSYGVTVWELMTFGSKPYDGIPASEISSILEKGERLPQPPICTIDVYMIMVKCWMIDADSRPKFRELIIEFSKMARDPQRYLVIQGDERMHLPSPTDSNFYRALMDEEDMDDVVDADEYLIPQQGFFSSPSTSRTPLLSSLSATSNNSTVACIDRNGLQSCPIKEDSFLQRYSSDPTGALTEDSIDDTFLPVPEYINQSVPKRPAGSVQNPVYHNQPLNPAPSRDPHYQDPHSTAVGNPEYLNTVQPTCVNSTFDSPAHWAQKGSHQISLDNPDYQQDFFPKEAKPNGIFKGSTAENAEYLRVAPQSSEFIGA
a) Centrifuge the growth cells in logarithmic phase at 1000 rpm for 5 minutes, resuspend the cells in culture medium, and then count the cells;
b) Inoculate the cells into a 96-well cell culture plate with a density of 2000 cells/well;
b) Incubate cells in an incubator for another 72 hours.
a) Take out the 96-well cell culture plate and add 50 μl CTG reagent (CellTiter Glo kit, promega, Cat #G7573);
b) Shake the plate for 2 minutes and let cool at room temperature for 10 minutes;
c) Read luminous signal value with PerkinElmer reader,
Analysis of Experimental Data
The data were analyzed by GraphPad Prism 6.0 software to obtain the fitting curve of compound activity.
Y=Min+(Max−Min)/(1+10^((Log IC50−X)*slope));
X: Logarithm of compound concentration; Y: luminous signal.

In a further assay the test system is A431. Kind of assay: A431 cell proliferation assay (CellTiter Glo, 72 hours). The class given is cell-based. The following applies: Homo sapiens, A-431, 72 h. The essentials:
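A431 cells (2000/well) exposed 72 h to compound at 1000 nM down to 0.2 nM in 3-fold steps, 0.1% DMSO (0.5% for some series). Viability by CellTiter-Glo luminescence; IC50 by four-parameter nonlinear regression.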

A further assay has as its target EGFRΔ19del/T790M/C797S (Homo sapiens, UniProt P00533, T790M/C797S, form not given). Kind of assay: EGFR Δ19del/T790M/C797S kinase test (mobility variation analysis, Caliper EZ Reader). Particulars: kinase enzymatic activity, Table 1. Type of assay: biochemical. The essentials:
(§1)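 Kinase pre-incubated with compound 10 minutes at room temperature, then ATP plus peptide substrate added; substrate conversion read by mobility shift after stop solution. Percent inhibition normalized to no-compound and no-enzyme controls; IC50 from variable-slope log(inhibitor) fit.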

In another assay the target is EGFR WT (Homo sapiens, UniProt P00533). Kind of assay: EGFR WT kinase test (mobility variation analysis, Caliper EZ Reader). Type of assay: biochemical. Particulars: kinase enzymatic activity, Table 1. The essentials:
as §1

[3] abbreviates: Table 2, read-out: EGFR Δ19del/T790M/C797S IC50.
Setting [4] is: cell proliferation, A431, 72 hours, Table 2, read-out: A431 IC50.

Like-named read-outs stand apart in the source and are kept apart here.

Sequence of EGFRΔ19del/T790M/C797S (P00533 with tags, fused parts or gaps DEL746-750/T790M/C797S, form open): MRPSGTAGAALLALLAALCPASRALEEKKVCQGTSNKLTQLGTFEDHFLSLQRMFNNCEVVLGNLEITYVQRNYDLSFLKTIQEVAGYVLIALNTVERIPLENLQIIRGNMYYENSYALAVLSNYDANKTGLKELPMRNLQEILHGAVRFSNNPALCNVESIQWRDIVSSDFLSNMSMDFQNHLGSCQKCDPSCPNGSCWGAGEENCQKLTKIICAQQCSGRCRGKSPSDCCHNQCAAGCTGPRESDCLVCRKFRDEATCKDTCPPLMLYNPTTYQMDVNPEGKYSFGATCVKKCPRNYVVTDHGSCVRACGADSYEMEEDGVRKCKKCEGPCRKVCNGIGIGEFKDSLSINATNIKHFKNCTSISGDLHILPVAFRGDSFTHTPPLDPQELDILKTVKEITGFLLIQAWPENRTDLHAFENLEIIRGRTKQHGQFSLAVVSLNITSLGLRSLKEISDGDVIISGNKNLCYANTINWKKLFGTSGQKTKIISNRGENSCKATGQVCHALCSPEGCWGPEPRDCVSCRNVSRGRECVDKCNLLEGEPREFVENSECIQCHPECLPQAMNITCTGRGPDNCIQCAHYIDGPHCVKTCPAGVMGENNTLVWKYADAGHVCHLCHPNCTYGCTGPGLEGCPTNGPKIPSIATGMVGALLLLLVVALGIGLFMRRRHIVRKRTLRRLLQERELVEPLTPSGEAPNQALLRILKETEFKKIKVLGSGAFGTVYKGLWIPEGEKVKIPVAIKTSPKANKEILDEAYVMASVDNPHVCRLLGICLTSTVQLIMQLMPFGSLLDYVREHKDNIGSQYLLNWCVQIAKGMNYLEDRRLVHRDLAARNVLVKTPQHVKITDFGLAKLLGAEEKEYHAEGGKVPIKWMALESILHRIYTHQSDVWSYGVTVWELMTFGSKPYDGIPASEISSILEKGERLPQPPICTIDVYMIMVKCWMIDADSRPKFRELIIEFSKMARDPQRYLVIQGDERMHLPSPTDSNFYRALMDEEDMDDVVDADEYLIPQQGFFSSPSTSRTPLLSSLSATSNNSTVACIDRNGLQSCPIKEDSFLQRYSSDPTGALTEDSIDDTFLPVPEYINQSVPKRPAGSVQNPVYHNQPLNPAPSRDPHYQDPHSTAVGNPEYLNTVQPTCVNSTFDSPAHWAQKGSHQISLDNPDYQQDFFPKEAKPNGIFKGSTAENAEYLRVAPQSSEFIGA
Sequence of Ba/F3 cells with EGFR Δ19del/T790M/C797S mutation gene stably overexpressed (P00533 with tags, fused parts or gaps DEL746-750/T790M/C797S, form open): as above

Regarding `COc1cc(N2CCC(N3CCN(C)CC3)CC2)ccc1Nc1ncc(Cl)c(Nc2ccccc2P(C)(C)=O)n1` [Brigatinib, reference compound], the IC50 at IGF1R was found to be 23.4 nM; in the assay with A431 (read-out: A431 IC50(nM)) it was 309 nM. In addition, the GI50 in assay [1] (read-out: EGFR Δ19del/T790M/C797S IC50, Table 2) is 64.9 nM; in assay [2], 22.5 nM.
Take `CCc1cc(Nc2ncc(Br)c(Nc3ccc(-c4cnn(C)c4)cc3P(C)(C)=O)n2)c(OC)cc1N1CCC(N2CCN(C)CC2)CC1` [Compound 3, (2-((5-Bromo-2-((5-ethyl-2-methoxy-4-(4-(4-methylpiperazin-1-yl)piperidin-1-yl)phenyl)amino)pyrimidin-4-yl)amino)-5-(1-methyl-1hydro-pyrazol-4-yl)phenyl)dimethylphosphine oxide]: the IC50 on IGF1R turned out to be 53.7 nM; against EGFRΔ19del/T790M/C797S, 0.3 nM; in the assay with A431 (setting [4]), 602 nM. Also, the GI50 in assay [1] (setting [3]) was 4.5 nM; in assay [2], 107 nM.
In the case of `CCc1cc(Nc2ncc(Br)c(Nc3ccc(-c4ccco4)cc3P(C)(C)=O)n2)c(OC)cc1N1CCC(N2CCN(C)CC2)CC1` [Compound 16, (2-((5-Bromo-2-((5-ethyl-2-methoxy-4-(4-(4-methylpiperazin-1-yl)piperidin-1-yl)phenyl)amino)pyrimidin-4-yl)amino)-5-(furan-2-yl)phenyl)dimethylphosphine oxide], the results for the GI50 in assay [1] (setting [3]) and in assay [2] were 5.4 nM and 141 nM, respectively. Moreover, the figures for the IC50 against EGFRΔ19del/T790M/C797S and in the assay with A431 (setting [4]) were 0.4 nM and 564 nM, respectively.
Consider `CCc1cc(Nc2ncc(Br)c(Nc3ccc(-c4cnn(C(C)C)n4)cc3P(C)(C)=O)n2)c(OC)cc1N1CCC(N2CCN(C)CC2)CC1` [Compound 85, (2-((5-Bromo-2-((5-ethyl-2-methoxy-4-(4-(4-methylpiperazin-1-yl)piperidin-1-yl)phenyl)amino)pyrimidin-4-yl)amino)-5-(2-isopropyl-2H-l,2,3-triazol-4-yl)phenyl)dimethylphosphine oxide], for which the GI50 in assay [1] (setting [3]) was found to be 28.6 nM; in assay [2], 1120 nM. Besides, in the assay on A431 (setting [4]), the IC50 turned out to be 5770 nM.
In the case of `CCc1cc(Nc2ncc(Br)c(Nc3ccc(-c4cnn(C)c4)cc3P(C)(C)=O)n2)c(OC)cc1N1CCC(N2CCCC2)CC1` [Compound K-001], the values for the GI50 in assay [1] (setting [3]) and in assay [2] were 15.6 nM and 335 nM, respectively. For the same molecule, the IC50 in the assay with A431 (setting [4]) came to 371 nM.
Consider `CCn1cc(-c2cc(Nc3ncc(Br)c(Nc4ccc(-c5cc(C)n(C)n5)cc4P(C)(C)=O)n3)c(OC)cc2N2CCC(N3CCN(C)CC3)CC2)cn1` [Compound K-005, (2-((5-Bromo-2-((5-(1-ethyl-1H-pyrazol-4-yl)-2-methoxy-4-(4-(4-methylpiperazin-1-yl)piperidin-1-yl)phenyl)amino)pyrimidin-4-yl)amino)-5-(1,5-dimethyl-1H-pyrazol-3-yl)phenyl)dimethylphosphine oxide], for which the GI50 in assay [1] (setting [3]) worked out at 27.9 nM; in assay [2] it was 482 nM. For the same molecule, the half-inhibitory concentration (IC50) in the assay on A431 (setting [4]) worked out at 415 nM.
Turning to `CCc1cc(Nc2ncc(Br)c(Nc3ccc(-c4cnn(C(F)F)n4)cc3P(C)(C)=O)n2)c(OC)cc1N1CCC(N2CCN(C)CC2)CC1` [Compound K-006, (2-((5-Bromo-2-((5-ethyl-2-methoxy-4-(4-(4-methylpiperazin-1-yl)piperidin-1-yl)phenyl)amino)pyrimidin-4-yl)amino)-5-(2-(difluoromethyl)-2H-1,2,3-triazol-4-yl)phenyl)dimethylphosphine oxide], the GI50 in assay [1] (setting [3]) came to 11.6 nM; in assay [2] it was 180 nM. Also, the IC50 with A431 (setting [4]) was 1270 nM.
For `COc1cnn(-c2ccc(Nc3nc(Nc4cc(C)c(N5CCOCC5)c(OC)c4)ncc3Br)c(P(C)(C)=O)c2)c1` [Compound K-031, (2-((5-Bromo-2-((3-methoxy-5-methyl-4-morpholinophenyl)amino)pyrimidin-4-yl)amino)-5-(4-methoxy-1H-pyrazol-1-yl)phenyl)dimethylphosphine oxide], the results for the IC50 on EGFR WT, at IGF1R and against EGFRΔ19del/T790M/C797S were 1130 nM, 394 nM and 1.4 nM, respectively. For the same molecule, the GI50 in assay [1] (setting [3]) came out at 16.8 nM; in assay [2] it was 150 nM.
Consider `COc1cc(N2CCC(N3CCCCC3)CC2)c(-c2cnn(C)c2)cc1Nc1ncc(Br)c(Nc2ccc(-c3ccccc3)c(C)c2P(C)(C)=O)n1` [Compound K-051], for which the GI50 in assay [1] (setting [3]) was determined as 1.4 nM; in assay [2] it was 15.8 nM. Also, in the assay with A431 (setting [4]), the IC50 was 125 nM.
Consider `CCc1cc(Nc2ncc(Cl)c(Nc3ccc(-c4nn(C)cc4C#N)cc3P(C)(C)=O)n2)c(OC)cc1N1CCC(N2CCN(C)CC2)CC1` [Compound K-060, 3-(4-((5-Chloro-2-((5-ethyl-2-methoxy-4-(4-(4-methylpiperazin-1-yl)piperidin-1-yl)phenyl)amino)pyrimidin-4-yl)amino)-3-(dimethylphosphineoxide)phenyl)-1-methyl-1H-pyrazol-4-carbonitrile], for which, in assay [2], the GI50 worked out at 293 nM.
The same measure, in the same setting: next, `CCc1cc(Nc2ncc(Br)c(Nc3ccc(-c4cnc(C5CC5)cn4)cc3P(C)(C)=O)n2)c(OC)cc1N1CCC(N2CCN(C)CC2)CC1` [Compound K-064, (2-((5-Bromo-2-((5-ethyl-2-methoxy-4-(4-(4-methylpiperazin-1-yl)piperidin-1-yl)phenyl)amino)pyrimidin-4-yl)amino)-5-(5-cyclopropylpyrazin-2-yl)phenyl)dimethylphosphine oxide]: 152 nM; `CCc1cc(Nc2ncc(Br)c(Nc3ccc(-c4cnc(C)cn4)cc3P(C)(C)=O)n2)c(OC)cc1N1CCC(N2CCN(C)CC2)CC1` [Compound K-065, (2-((5-Bromo-2-((5-ethyl-2-methoxy-4-(4-(4-methylpiperazin-1-yl)piperidin-1-yl)phenyl)amino)pyrimidin-4-yl)amino)-5-(5-methylpyrazin-2-yl)phenyl)dimethylphosphine oxide]: 132 nM.
The same measure, in the same setting: next, `CCc1cc(Nc2ncc(Br)c(Nc3ccc(-c4cnc(C)c(C)n4)cc3P(C)(C)=O)n2)c(OC)cc1N1CCC(N2CCN(C)CC2)CC1` [Compound K-067, (2-((5-Bromo-2-((5-ethyl-2-methoxy-4-(4-(4-methylpiperazin-1-/l)piperidin-1-yl)phenyl)amino)pyrimidin-4-yl)amino)-5-(5,6-dimethylpyrazin-2-yl)phenyl)dimethylphosphine oxide]: 417 nM.
Consider `CCc1cc(Nc2ncc(Br)c(Nc3ccc(-c4ccc(C)nc4)cc3P(C)(C)=O)n2)c(OC)cc1N1CCC(N2CCN(C)CC2)CC1` [Compound K-070, (2-((5-Bromo-2-((5-ethyl-2-methoxy-4-(4-(4-methylpiperazin-1-yl)piperidin-1-yl)phenyl)amino)pyrimidin-4-yl)amino)-5-(6-methylpyridin-3-yl)phenyl)dimethylphosphine oxide], for which the GI50 in assay [2] was determined as 238 nM.
`COc1cnn(-c2ccc(Nc3nc(Nc4cc(-c5cnn(C)c5)c(N5CCN(C6CCCC6)CC5)cc4OC)ncc3Br)c(P(C)(C)=O)c2)c1` [Compound K-081]: the figures for the GI50 in assay [1] (setting [3]) and in assay [2] were 1 nM and 52.1 nM, respectively. For the same molecule, the IC50 in the assay with A431 (setting [4]) came to 379 nM.
As to `COc1cnn(-c2ccc(Nc3nc(Nc4cc(-c5cnn(C)c5)c(N5CCN(C(C)=O)CC5)cc4OC)ncc3Br)c(P(C)(C)=O)c2)c1` [Compound K-082], the figures for the GI50 in assay [1] (setting [3]) and in assay [2] were 11.4 nM and 2960 nM, respectively. Besides, the IC50 in the assay with A431 (setting [4]) came out at 1260 nM.
For `COc1cn(-c2ccc(Nc3nc(Nc4cc(-c5cnn(C)c5)c(N5CCN(c6cccnc6)CC5)cc4OC)ncc3Br)c(P(C)(C)=O)c2)cn1` [Compound K-083, (2-((5-Bromo-2-((2-methoxy-5-(1-methyl-1H-pyrazol-4-yl)-4-(4-(pyridin-3-yl)Piperazin-1-yl)phenyl)amino)pyrimidin-4-yl)amino)-5-(4-methoxy-1H-imidazol-1-yl)phenyl)dimethylphosphine oxide], the GI50 in assay [1] (setting [3]) was found to be 1 nM; in assay [2], 113 nM. The IC50 in the assay with A431 (setting [4]) came to 910 nM.
